Assay results: patent US20230128194A1, “METHODS AND COMPOSITIONS TO ALTER HEPATIC GABA RELEASE TO TREAT OBESITY-RELATED CONDITIONS” (ARIZONA BOARD OF REGENTS ON BEHALF OF THE UNIVERSITY OF …, priority 2017, published 2023)

How the values were obtained:
[1] = test system: high fat diet-induced obese mice; assay: GABA-T inhibitors (8 mg/day IP) in HFD-induced obese mice: body weight, serum insulin/glucose/glucagon, OGTT, ITT; assay type: in vivo, mouse
Protocol: All animal studies were conducted using male wildtype C57BL/6J mice purchased from Jackson Laboratories or bred in-house (Bar Harbor, Me.). Mice were kept on a 14-hour light/10-hour dark schedule and housed 3-5 mice per cage until 1 week prior to study initiation, at which point animals were individually housed. Studies were conducted in lean chow fed mice (7013 NIH-31, Teklad WI, 3.1 kcal/g, 18% kcal from fat, 59% kcal from carbohydrate, 23% kcal from protein) at 12-16 weeks of age. Studies in diet-induced obese mice dosed intraperitoneally with GABA transaminase inhibitors, mice treated with ethanolamine-O-sulfate in their drinking water, and mice treated with GABA-T targeted or scramble control antisense oligonucleotides (ASO) were performed after 8-10 weeks on a high fat diet (TD 06414, Teklad WI, 5.1 kcal/g, 60.3% kcal from fat, 21.3% kcal from carbohydrate, 18.4% kcal from protein; 20-26 weeks of age). For ASO studies, mice were stratified by body weight and assigned to an injection treatment (control or GABA-T). Studies in obese vagotomy and sham mice were performed after 9 weeks of high fat diet feeding. Unless fasted, mice had ad libitum access to food and water. All studies were approved by The University of Arizona Institutional Animal Care and Use Committee.
Wildtype lean and obese mice were randomly divided into treatment groups and dosed daily with 8 mg of ethanolamine-O-sulfate (EOS; Sigma-Aldrich, St. Louis, Mo.), vigabatrin (United States Pharmacopeia, Rockville, Md.) or PBS. Obese sham and vagotomy mice were dosed daily with 8 mg of EOS. In all cases, basal bleeds were taken prior to initiation of an ITT. Lean mice received treatment by oral gavage (0.3 mL/mouse) while obese mice were treated by intraperitoneal injection (0.3 mL/mouse). Pre-treatment studies were conducted in the week immediately prior to beginning drug administration. Daily doses took place at 9 am each day and oral glucose tolerance tests (OGTT) and insulin tolerance tests (ITT) were performed on the third and fourth days of treatment in lean mice, respectively. In wildtype obese mice, OGTT and ITT were performed on the fourth day of treatment in separate cohorts. On the fifth day of treatment, 2DG clearance studies were performed. In sham/vagotomy mice, OGTT and ITT were performed on the fourth and fifth day of treatment, respectively. After a 2-week washout period without treatment injection, a basal bleed and bleed 15 minutes after an oral glucose gavage ([…]) to determine oral glucose stimulated insulin secretion were performed.
Oral glucose (2.5 g/kg; 0.1 mL/10 g body weight; Chem-Impex Int'l Inc., Wood Dale, Ill.) was given to 4 hour fasted individually housed mice. All glucose tolerance tests began at […] and glucose was measured in whole blood, collected from the tail vein, by glucometer (Manufacture #D2ASCCONKIT, Bayer, Leverkusen, Germany) at 0, 15, 30, 60, 90, and 120 minutes after glucose gavage. Blood for serum insulin (oral glucose stimulated insulin secretion; OGSIS) and glucose determination was collected from the tail vein 15 minutes following glucose administration.
Intraperitoneal insulin (0.5 U/kg; 0.1 mL/10 g body weight; Sigma Aldrich, St. Louis, Mo.) was given to 4 hour fasted individually housed mice. All insulin tolerance tests began at […] and glucose was measured in whole blood, collected from the tail vein, by glucometer (Manufacture #D2ASCCONKIT, Bayer, Leverkusen, Germany) at 0, 30, 60, 90, and 120 minutes after insulin injection.
Within 2 hours of collection, blood was left to clot at room temperature for 20 minutes. Thereafter, the blood was centrifuged at 3,000×g for 30 minutes at 4° C. and serum was collected. Serum was stored at −80° C. until metabolite and hormone analyses. A colorimetric assay was used to analyze serum glucose (Cat. #G7519, Pointe Scientific Inc., Canton Mich.). Serum insulin was analyzed by enzyme-linked immunosorbent assay (ELISA; Cat. #80-INSMSU-E01,E10, Alpco, Salem, N.H.). […]

[2] = test system: high fat diet-induced obese mice; assay: tissue specific 3H-2-deoxy-D-glucose uptake after oral glucose gavage; assay type: in vivo, mouse; conditions: day 5, vs saline
Protocol: On the fifth day of EOS or PBS treatment 3H-2-deoxy-D-glucose (2DG; 10 uCi/mouse; PerkinElmer, Waltham, Mass.) was given to 4-hour fasted individually housed mice. Studies were performed in 2 cohorts on 2 different days. 2DG was given by oral gavage in a solution of glucose (2.5 g/kg) and each mouse received the same dose based off the average body weight for their cohort (0.1 mL/10 g body weight). Mice were anesthetized by isoflurane and sacrificed by cervical dislocation 45 minutes following oral gavage. Liver, soleus, quadriceps femoris, and gonadal white adipose tissue were collected, weighed, and dissolved overnight in 1N NaOH (0.5 mL/50 mg tissue) at 55° C. on a shaker plate. 0.5 mL of dissolved tissue was added to 5 mL of scintillation cocktail (Ultima Gold, PerkinElmer, Waltham, Mass.) and disintegrations per minute (DPM) were measured using a LS 6500 Multipurpose Scintillation Counter (Beckman Coulter, Brea, Calif.). DPM/g tissue weight was determined for each tissue and normalized based on a correction factor calculated by the average total DPM/g for all tissues divided by the total DPM/g for all tissues of the individual mouse.

[3] = 8 mg/day IP, four days, relative to pre-treatment

For `NCCOS(=O)(=O)O` [EOS, ethanolamine-O-sulfate], the “glucose:insulin ratio” value [1, 3] was “increased”, the serum glucose [1, 3] was “decreased” and the serum insulin [1, 3] was “decreased”. The body weight ([1]; 8 mg/day IP, through 5 days, vs saline injected mice) was “remained similar”, the serum glucagon ([1]; 5 days, relative to control mice) was “decreased” and the “glucose stimulated serum insulin” value ([1]; treatment day 4, relative to pre-treatment) was “tended to be decreased”. For the same molecule, the “glucose stimulated serum insulin after washout” value ([1]; two-weeks washout) was “markedly increased”, the “serum insulin and glucose:insulin ratio after washout” value ([1]; two-weeks washout) was “return of serum insulin and the glucose:insulin ratio to pre-treatment levels” and the “insulin sensitivity assessed by insulin tolerance test (ITT)” value ([1]; within 4 days of initiating treatment) was “improved”. The “2DG clearance by gonadal white adipose tissue” value [2] was “did not affect”, the “2DG clearance by the quadriceps femoris” value [2] was “did not affect” and the “increase of 2DG uptake by the soleus” value [2] was 22%.
